Assays:
[1] = target: T1, Serine/threonine-protein kinase BRSK1 (Homo sapiens) (UniProt Q8TDC3); assay: Inhibition of human full length BRSK1 expressed in baculovirus assessed as substrate phosphorylation using fluorescence-labelled peptides as substrate at 0.06 uM after 90 mins by microfluidic peptide phosphorylation assay
T1 sequence (whole entry): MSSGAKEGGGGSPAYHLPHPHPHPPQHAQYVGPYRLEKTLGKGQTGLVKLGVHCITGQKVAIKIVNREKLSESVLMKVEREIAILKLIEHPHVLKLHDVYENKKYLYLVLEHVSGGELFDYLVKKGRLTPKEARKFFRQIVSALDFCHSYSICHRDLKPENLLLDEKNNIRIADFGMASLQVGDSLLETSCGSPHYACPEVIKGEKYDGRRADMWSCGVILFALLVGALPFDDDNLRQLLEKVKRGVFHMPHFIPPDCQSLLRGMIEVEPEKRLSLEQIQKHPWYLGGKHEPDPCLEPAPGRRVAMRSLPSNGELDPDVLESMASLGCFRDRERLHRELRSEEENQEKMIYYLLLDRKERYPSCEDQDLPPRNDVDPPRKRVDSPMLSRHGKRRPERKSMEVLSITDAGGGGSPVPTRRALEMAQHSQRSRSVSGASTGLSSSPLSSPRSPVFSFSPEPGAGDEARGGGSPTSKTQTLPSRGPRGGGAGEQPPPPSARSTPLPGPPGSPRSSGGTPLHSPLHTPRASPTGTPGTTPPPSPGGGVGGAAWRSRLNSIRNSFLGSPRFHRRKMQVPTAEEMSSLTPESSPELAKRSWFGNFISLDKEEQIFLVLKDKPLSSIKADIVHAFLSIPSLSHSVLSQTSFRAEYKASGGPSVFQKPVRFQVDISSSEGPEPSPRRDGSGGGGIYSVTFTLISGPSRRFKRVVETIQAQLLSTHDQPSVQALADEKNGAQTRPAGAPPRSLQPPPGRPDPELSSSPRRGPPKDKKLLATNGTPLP

[2] = target: T2, Calcium/calmodulin-dependent protein kinase type IV (Homo sapiens) (UniProt Q16566); assay: Inhibition of human full length CAMK4 expressed in baculovirus assessed as substrate phosphorylation using fluorescence-labelled peptides as substrate at 70 uM after 90 mins by microfluidic peptide phosphorylation assay
T2 sequence (whole entry): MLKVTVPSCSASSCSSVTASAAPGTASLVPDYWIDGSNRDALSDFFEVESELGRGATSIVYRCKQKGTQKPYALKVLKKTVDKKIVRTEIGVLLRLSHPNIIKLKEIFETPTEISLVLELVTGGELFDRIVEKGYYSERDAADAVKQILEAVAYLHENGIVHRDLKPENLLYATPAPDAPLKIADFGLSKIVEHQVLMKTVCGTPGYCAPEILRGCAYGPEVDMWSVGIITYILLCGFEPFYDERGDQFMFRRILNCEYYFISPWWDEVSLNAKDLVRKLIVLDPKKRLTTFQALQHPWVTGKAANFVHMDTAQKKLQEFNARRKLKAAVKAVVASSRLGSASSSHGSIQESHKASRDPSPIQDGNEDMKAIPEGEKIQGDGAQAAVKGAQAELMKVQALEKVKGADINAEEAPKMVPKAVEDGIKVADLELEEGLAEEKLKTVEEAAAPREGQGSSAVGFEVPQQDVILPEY

[3] = target: T3, Serine/threonine-protein kinase Sgk2 (Homo sapiens) (UniProt Q9HBY8); assay: Inhibition of human full length SGK2 expressed in baculovirus assessed as substrate phosphorylation using fluorescence-labelled peptides as substrate at 70 uM after 90 mins by microfluidic peptide phosphorylation assay
T3 sequence (whole entry): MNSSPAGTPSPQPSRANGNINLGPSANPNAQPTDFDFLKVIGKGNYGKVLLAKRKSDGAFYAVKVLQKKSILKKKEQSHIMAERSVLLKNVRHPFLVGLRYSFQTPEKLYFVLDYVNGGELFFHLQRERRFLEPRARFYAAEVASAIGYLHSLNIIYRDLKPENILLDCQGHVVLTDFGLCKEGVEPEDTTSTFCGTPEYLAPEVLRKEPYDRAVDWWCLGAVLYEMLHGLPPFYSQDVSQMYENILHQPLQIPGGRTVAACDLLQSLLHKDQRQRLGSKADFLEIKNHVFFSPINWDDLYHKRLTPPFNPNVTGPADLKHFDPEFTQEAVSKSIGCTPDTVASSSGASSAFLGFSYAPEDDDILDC

[4] = target: Protein kinase C gamma type (Homo sapiens) (UniProt P05129); assay: Inhibition of human truncated PKC gamma expressed in baculovirus assessed as substrate phosphorylation using fluorescence-labelled peptides as substrate at 9 uM after 90 mins by microfluidic peptide phosphorylation assay
[5] = target: T4, Serine/threonine-protein kinase 3 (Homo sapiens) (UniProt Q13188); assay: Inhibition of human full length MST2 expressed in baculovirus assessed as substrate phosphorylation using fluorescence-labelled peptides as substrate at 1000 uM after 90 mins by microfluidic peptide phosphorylation assay
T4 sequence (whole entry): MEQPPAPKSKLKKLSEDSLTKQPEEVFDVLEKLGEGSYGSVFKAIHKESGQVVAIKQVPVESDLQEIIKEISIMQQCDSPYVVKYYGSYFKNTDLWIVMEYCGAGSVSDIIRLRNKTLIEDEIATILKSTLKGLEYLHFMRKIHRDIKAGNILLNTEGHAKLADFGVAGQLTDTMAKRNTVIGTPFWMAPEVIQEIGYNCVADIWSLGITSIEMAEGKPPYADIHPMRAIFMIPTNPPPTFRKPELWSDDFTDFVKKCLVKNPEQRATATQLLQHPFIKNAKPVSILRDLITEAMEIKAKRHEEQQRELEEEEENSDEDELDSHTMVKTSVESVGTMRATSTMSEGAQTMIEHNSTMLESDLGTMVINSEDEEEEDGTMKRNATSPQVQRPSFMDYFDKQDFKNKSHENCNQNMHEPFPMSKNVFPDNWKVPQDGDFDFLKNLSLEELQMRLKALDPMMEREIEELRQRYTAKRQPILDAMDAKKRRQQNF

[6] = target: T5, Aurora kinase A (Homo sapiens) (UniProt O14965); assay: Inhibition of human full length AurA expressed in baculovirus assessed as substrate phosphorylation using fluorescence-labelled peptides as substrate at […] after 90 mins by microfluidic peptide phosphorylation assay
T5 sequence (whole entry): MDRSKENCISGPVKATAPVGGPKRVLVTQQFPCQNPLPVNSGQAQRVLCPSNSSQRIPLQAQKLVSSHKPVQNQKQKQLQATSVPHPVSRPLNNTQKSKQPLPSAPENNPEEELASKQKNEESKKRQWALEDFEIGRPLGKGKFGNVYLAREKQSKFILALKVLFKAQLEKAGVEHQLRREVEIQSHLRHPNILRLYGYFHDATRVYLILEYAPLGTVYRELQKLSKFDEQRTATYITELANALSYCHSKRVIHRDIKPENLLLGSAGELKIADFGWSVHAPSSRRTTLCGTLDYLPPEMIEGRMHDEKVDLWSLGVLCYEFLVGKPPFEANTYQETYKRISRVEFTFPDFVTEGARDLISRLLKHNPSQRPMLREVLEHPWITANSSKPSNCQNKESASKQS

`NC1(Cc2ccc(Cl)cc2)CCN(c2ncnc3[nH]ccc23)CC1` gave an inhibition [1] of 0%.

For `CNCc1ccc(-c2ncnc3[nH]cnc23)cc1`, the inhibition [2] was 77.5% and the inhibition [3] was 74%.

For `NCC1CN(c2ncnc3[nH]c4cnccc4c23)CCO1` (stereo unspecified), the inhibition [4] was 34.5%.

Compound `c1cnc2[nH]ccc2c1` has an inhibition [5] of 63%.

In the case of `COC(=O)c1cnc(Nc2cnc(C#N)cn2)cc1NCC1CCNCC1`, the inhibition [6] is reported as 6.5%.
